How the values were obtained:
JAK2 = biological target: T1, JAK2 (Homo sapiens, UniProt O60674); test: Biochemical JAK2 kinase assay (LanthaScreen); conditions: for Ki: read-out: JAK 2 (pKi) (converted)
T1 construct: GST; purchased Life Technologies
In short: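 pKi values derive from pIC50 via Cheng-Prusoff, with IC50 from a 4-parameter fit of percent-inhibition TR-FRET data using Tb-anti-pSTAT1 (pTyr701) detection. Compound, GST-JAK2 and GFP-STAT1 substrate were pre-incubated 1 h, then ATP started a 1 h ambient reaction (HEPES pH 7.5, 10 mM MgCl2, 1% DMSO).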

JAK3 = biological target: T2, JAK3 (Homo sapiens, UniProt P52333); test: Biochemical JAK3 kinase assay (LanthaScreen); parameters: GST; purchased Life Technologies; conditions: for JAK3 (pKi)-JAK1 (pKi): selectivity JAK3 over JAK1, difference of pKi; for Ki: read-out: JAK 3 (pKi) (converted)
T2 sequence (P52333 1-1124): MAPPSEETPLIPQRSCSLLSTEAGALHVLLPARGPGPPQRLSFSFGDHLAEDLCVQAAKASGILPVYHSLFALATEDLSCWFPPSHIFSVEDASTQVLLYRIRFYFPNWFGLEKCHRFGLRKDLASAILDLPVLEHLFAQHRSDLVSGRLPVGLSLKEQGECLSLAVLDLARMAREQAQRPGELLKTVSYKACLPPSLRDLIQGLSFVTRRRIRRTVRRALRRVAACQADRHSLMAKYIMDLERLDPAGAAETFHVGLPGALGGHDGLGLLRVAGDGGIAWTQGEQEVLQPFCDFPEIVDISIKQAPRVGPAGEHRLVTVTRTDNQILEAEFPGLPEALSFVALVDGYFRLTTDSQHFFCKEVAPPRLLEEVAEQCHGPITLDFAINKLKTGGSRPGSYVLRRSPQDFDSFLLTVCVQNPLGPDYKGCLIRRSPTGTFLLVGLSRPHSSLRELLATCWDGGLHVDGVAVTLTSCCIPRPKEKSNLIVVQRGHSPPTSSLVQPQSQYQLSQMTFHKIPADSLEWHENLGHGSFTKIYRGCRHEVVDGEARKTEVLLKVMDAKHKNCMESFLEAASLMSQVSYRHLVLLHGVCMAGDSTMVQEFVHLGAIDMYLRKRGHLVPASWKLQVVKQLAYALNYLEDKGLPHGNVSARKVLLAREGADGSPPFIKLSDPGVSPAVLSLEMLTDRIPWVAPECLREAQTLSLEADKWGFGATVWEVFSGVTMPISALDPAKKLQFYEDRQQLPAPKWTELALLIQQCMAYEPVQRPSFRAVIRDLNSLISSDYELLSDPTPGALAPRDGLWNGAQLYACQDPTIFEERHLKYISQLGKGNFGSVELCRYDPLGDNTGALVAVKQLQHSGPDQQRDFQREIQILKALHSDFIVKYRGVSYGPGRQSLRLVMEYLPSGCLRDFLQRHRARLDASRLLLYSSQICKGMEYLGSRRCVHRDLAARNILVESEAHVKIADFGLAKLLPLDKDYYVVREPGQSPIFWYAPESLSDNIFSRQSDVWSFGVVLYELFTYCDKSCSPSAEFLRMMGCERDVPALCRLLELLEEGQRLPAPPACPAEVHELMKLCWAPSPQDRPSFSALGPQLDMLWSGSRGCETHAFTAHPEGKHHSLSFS
In short: (§1)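 GST-JAK + GFP-STAT1 peptide + cpd, 1 h preinc RT; ATP start, 1% DMSO, 1 h RT; stop 10 mM EDTA + 2 nM Tb-anti-pSTAT1; 1 h; TR-FRET 520/495. % inhib vs DMSO/background → IC50 (4-PL) → pKi (Cheng-Prusoff).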

[1] = test system: IL-2 stimulated pSTAT5 in Tall-1 T cells; test: Cellular JAK3 potency assay: inhibition of IL-2 stimulated pSTAT5 in Tall-1 T cells; assay type: cell-based, human; conditions: for Tall-1 (pIC50): IL-2 stimulated pSTAT5, Tall-1 T cells; for IC50: Homo sapiens, TALL-1, IL-2 stimulated pSTAT5, Tall-1 T cells, read-out: Tall-1 (pIC50) (converted)
In short: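 Inhibition of IL-2-induced pSTAT5 was quantified by AlphaLisa in Tall-1 cell lysates. Compound exposure lasted 1 h before 30 min stimulation with 300 ng/ml IL-2 final.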

Tyk2 = biological target: T3, Tyk2 (Homo sapiens, UniProt P29597); test: Biochemical Tyk2 kinase assay (LanthaScreen); conditions: for Ki: read-out: Tyk 2 (pKi) (converted)
T3 construct: GST; purchased Life Technologies
T3 sequence (P29597 whole entry): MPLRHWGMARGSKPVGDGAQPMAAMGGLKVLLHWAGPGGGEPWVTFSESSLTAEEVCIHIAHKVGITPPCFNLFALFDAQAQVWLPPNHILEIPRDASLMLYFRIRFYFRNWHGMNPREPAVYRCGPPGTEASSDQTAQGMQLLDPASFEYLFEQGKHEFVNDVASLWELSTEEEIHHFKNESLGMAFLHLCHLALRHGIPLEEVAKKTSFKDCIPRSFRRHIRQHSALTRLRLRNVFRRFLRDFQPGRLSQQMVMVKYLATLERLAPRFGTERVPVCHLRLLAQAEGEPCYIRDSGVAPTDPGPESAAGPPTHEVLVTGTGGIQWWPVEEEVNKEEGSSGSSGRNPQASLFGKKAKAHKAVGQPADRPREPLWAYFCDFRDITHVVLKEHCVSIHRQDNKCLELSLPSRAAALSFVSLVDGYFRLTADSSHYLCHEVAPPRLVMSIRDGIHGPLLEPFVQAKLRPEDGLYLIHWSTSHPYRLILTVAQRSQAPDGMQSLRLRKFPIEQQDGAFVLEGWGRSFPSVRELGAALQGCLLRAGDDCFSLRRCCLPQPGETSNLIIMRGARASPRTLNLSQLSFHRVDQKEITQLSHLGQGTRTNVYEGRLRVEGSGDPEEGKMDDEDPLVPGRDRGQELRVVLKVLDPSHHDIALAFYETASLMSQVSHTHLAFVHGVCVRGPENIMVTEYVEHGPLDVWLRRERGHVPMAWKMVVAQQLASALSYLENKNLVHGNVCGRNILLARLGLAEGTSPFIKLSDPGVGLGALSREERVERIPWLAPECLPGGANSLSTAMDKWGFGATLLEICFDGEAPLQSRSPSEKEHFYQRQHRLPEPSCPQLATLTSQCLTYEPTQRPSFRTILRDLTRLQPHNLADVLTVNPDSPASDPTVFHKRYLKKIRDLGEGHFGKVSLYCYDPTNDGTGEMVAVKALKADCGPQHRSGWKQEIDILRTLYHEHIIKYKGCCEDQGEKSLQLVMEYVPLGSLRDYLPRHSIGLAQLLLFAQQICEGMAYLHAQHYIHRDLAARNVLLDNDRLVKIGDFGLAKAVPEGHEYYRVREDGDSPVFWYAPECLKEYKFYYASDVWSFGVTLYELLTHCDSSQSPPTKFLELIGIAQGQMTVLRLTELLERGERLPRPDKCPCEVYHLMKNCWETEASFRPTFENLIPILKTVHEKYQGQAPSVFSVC
In short: as §1

JAK1 = biological target: T4, JAK1 (Homo sapiens, UniProt P23458); test: Biochemical JAK1 kinase assay (LanthaScreen); conditions: for Ki: read-out: JAK 1 (pKi) (converted)
T4 construct: GST; purchased Life Technologies
T4 sequence (P23458 whole entry): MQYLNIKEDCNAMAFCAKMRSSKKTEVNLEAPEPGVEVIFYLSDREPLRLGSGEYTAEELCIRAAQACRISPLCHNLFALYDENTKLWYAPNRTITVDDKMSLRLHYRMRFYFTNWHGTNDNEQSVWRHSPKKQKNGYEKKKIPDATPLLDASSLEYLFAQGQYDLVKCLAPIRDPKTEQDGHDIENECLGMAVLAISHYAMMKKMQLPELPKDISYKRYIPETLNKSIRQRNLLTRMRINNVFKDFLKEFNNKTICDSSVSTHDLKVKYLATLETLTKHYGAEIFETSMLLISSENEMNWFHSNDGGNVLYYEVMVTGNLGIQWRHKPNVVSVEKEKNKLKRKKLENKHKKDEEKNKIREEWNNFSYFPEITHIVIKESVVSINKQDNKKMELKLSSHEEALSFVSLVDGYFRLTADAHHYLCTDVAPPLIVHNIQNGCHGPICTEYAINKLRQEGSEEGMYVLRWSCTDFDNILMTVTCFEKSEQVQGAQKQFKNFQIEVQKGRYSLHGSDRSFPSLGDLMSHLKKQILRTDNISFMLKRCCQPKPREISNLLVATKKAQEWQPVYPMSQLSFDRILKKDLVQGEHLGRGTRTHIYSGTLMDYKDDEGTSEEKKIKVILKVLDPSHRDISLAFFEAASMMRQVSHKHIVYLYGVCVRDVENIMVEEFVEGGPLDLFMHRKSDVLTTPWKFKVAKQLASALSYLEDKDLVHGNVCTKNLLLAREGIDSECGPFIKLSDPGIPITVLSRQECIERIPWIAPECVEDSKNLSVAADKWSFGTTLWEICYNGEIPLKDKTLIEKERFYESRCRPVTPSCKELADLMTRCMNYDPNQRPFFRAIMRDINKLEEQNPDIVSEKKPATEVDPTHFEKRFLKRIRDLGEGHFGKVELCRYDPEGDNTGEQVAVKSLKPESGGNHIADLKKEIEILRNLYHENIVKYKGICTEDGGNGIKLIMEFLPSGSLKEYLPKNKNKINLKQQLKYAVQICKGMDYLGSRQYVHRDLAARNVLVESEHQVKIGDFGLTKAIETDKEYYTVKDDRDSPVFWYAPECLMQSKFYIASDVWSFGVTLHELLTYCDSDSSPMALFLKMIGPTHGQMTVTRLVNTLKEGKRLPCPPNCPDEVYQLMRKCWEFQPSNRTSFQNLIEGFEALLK
In short: as §1

T1 sequence (O60674 whole entry): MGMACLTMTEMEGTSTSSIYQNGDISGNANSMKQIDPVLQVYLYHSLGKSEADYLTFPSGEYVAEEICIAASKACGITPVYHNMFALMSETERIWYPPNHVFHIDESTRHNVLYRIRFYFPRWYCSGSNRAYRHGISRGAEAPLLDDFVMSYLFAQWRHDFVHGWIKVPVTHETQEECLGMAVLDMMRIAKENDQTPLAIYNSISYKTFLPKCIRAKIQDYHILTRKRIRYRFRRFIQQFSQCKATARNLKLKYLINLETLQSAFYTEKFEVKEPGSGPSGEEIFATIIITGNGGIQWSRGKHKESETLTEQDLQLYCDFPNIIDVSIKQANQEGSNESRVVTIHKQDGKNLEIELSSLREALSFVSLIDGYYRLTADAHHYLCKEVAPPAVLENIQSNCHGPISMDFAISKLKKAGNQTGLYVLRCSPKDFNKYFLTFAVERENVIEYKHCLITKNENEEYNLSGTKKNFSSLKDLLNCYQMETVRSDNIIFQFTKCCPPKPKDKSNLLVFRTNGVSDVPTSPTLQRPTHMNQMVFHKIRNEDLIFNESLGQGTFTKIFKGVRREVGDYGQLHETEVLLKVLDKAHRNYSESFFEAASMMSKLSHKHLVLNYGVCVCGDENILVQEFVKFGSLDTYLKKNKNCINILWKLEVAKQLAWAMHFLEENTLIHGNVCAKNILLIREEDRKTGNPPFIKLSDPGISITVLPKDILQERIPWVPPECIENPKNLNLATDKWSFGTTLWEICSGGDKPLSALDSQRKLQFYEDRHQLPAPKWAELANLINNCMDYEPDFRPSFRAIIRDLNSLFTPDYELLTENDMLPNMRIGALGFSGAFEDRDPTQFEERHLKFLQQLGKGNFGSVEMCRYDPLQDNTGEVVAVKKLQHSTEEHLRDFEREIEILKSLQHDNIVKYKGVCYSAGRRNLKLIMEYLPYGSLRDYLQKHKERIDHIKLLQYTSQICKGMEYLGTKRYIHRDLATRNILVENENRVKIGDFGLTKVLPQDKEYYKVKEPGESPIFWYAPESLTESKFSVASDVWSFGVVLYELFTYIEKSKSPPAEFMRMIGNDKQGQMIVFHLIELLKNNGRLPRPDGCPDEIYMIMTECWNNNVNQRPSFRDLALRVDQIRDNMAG

Compound: C=CC(=O)N1CC(Oc2cc(-c3ccc(O)c(Cl)c3)cc3[nH]ncc23)(C(F)F)C1 [Compound 5-21]
- JAK 2 (pKi) (JAK2): E (a pKi value of 7 or below (Ki of 100 nM or above))
- JAK 3 (pKi) (JAK3): B (a pKi value between 9 and 10 (Ki between 1 nM and 0.1 nM))
- JAK3 (pKi)-JAK1 (pKi) (JAK3): A (a value of 3 or above)
- Tall-1 (pIC50) [1]: A (a pIC50 value≥7.5 (IC50≤32 nM))
- Tyk 2 (pKi) (Tyk2): E (a pKi value of 7 or below (Ki of 100 nM or above))
- JAK 1 (pKi) (JAK1): E (a pKi value of 7 or below (Ki of 100 nM or above))

Compound: C=CC(=O)N1CC(Oc2cc(-c3ccc(O)c(F)c3)cc3[nH]ncc23)(C(F)F)C1 [Compound 5-22]
- JAK 2 (pKi) (JAK2): E (a pKi value of 7 or below (Ki of 100 nM or above))
- JAK 3 (pKi) (JAK3): B (a pKi value between 9 and 10 (Ki between 1 nM and 0.1 nM))
- JAK3 (pKi)-JAK1 (pKi) (JAK3): A (a value of 3 or above)
- Tall-1 (pIC50) [1]: B (a pIC50 value between 6.7 (included) and 7.5 (IC50 between 200 nM and 32 nM))
- Tyk 2 (pKi) (Tyk2): E (a pKi value of 7 or below (Ki of 100 nM or above))
- JAK 1 (pKi) (JAK1): E (a pKi value of 7 or below (Ki of 100 nM or above))

Compound: C=CC(=O)N1CC(C)(Oc2cc(-c3ccc(O)c(Cl)c3)cc3[nH]ncc23)C1 [Compound 5-23]
- JAK 2 (pKi) (JAK2): E (a pKi value of 7 or below (Ki of 100 nM or above))
- JAK 3 (pKi) (JAK3): B (a pKi value between 9 and 10 (Ki between 1 nM and 0.1 nM))
- JAK3 (pKi)-JAK1 (pKi) (JAK3): A (a value of 3 or above)
- Tall-1 (pIC50) [1]: B (a pIC50 value between 6.7 (included) and 7.5 (IC50 between 200 nM and 32 nM))
- Tyk 2 (pKi) (Tyk2): E (a pKi value of 7 or below (Ki of 100 nM or above))
- JAK 1 (pKi) (JAK1): E (a pKi value of 7 or below (Ki of 100 nM or above))

Compound: C=CC(=O)N1CCC(Oc2cc(-c3ccc(O)cc3)cc3[nH]ncc23)CC1 [Compound 6-2]
- Ki (JAK2): 10 to 100 nM
- Ki (JAK3): < 0.1 nM
- JAK3 (pKi)-JAK1 (pKi) (JAK3): B (a value of 2.3 to 3)
- IC50 [1]: < 31.6 nM
- Ki (Tyk2): > 100 nM
- Ki (JAK1): 10 to 100 nM

Compound: C=CC(=O)N1CCC(C)(Oc2cc(-c3ccc(O)cc3)cc3[nH]ncc23)CC1 [Compound 6-3]
- Ki (JAK2): 10 to 100 nM
- Ki (JAK3): 0.1 to 1 nM
- JAK3 (pKi)-JAK1 (pKi) (JAK3): A (a value of 3 or above)
- IC50 [1]: < 31.6 nM
- Ki (Tyk2): > 100 nM
- Ki (JAK1): > 100 nM

Compound: CN(C)C/C=C/C(=O)N1CCC(C)(Oc2cc(-c3ccc(O)c(Cl)c3)cc3[nH]ncc23)CC1 [Compound 6-4]
- Ki (JAK2): 10 to 100 nM
- Ki (JAK3): < 0.1 nM
- JAK3 (pKi)-JAK1 (pKi) (JAK3): A (a value of 3 or above)
- IC50 [1]: 31.6 to 200 nM
- Ki (Tyk2): > 100 nM
- Ki (JAK1): > 100 nM

Compound: CN(C)C/C=C/C(=O)N1CCC(C)(Oc2cc(-c3ccc(O)c(F)c3)cc3[nH]ncc23)CC1 [Compound 6-6]
- Ki (JAK2): 10 to 100 nM
- Ki (JAK3): 0.1 to 1 nM
- JAK3 (pKi)-JAK1 (pKi) (JAK3): A (a value of 3 or above)
- IC50 [1]: < 31.6 nM
- Ki (Tyk2): > 100 nM
- Ki (JAK1): > 100 nM

Compound: C=CC(=O)N1CCC(Oc2cc(-c3ccc(O)c(Cl)c3)cc3[nH]ncc23)CC1 [Compound 6-13]
- JAK 2 (pKi) (JAK2): D (a pKi value between 7 and 8 (Ki between 100 nM and 10 nM))
- JAK 3 (pKi) (JAK3): B (a pKi value between 9 and 10 (Ki between 1 nM and 0.1 nM))
- JAK3 (pKi)-JAK1 (pKi) (JAK3): B (a value of 2.3 to 3)
- Tall-1 (pIC50) [1]: A (a pIC50 value≥7.5 (IC50≤32 nM))
- Tyk 2 (pKi) (Tyk2): E (a pKi value of 7 or below (Ki of 100 nM or above))
- JAK 1 (pKi) (JAK1): E (a pKi value of 7 or below (Ki of 100 nM or above))

Compound: C=CC(=O)N1CCC(Oc2nc(-c3ccc(O)cc3)cc3[nH]ncc23)CC1 [Compound 6-15]
- Ki (JAK2): 10 to 100 nM
- Ki (JAK3): 0.1 to 1 nM
- JAK3 (pKi)-JAK1 (pKi) (JAK3): A (a value of 3 or above)
- IC50 [1]: 31.6 to 200 nM
- Ki (Tyk2): > 100 nM
- Ki (JAK1): > 100 nM
